Source: ChEMBL document CHEMBL3045781, “Sensitivity monitoring of powdery mildew pathogens to cyflufenamid and the evaluation of resistance risk” (J Pestic Sci, 2006)
Values after ≈ are worked out from the molar mass of the structure shown.

Experiments:
[1] = tested on: Blumeria graminis f. sp. tritici; assay: Antifungal activity against Blumeria graminis f. sp. tritici after 6.25 g/ha 6 applications of compound in pot by selection pressure test (Control = 0.097 ppm); assay type: functional, organism-based
[2] = tested on: Blumeria graminis f. sp. tritici; assay: Antifungal activity against Blumeria graminis f. sp. tritici strains in compound treated wheat seedlings measured after 7 days by pot assay; assay type: functional, organism-based
Podosphaera fusca [3] = assay: Antifungal activity against wild type Sphaerotheca cucurbitae SFS-1; assay type: functional
Podosphaera fusca [4] = assay: Antifungal activity against kresoxim-methyl-resistant Sphaerotheca cucurbitae SFKMR-1; assay type: functional
Podosphaera fusca [5] = assay: Antifungal activity against thiophanate-methyl-resistant Sphaerotheca cucurbitae SFTMR-1; assay type: functional
Podosphaera fusca [6] = assay: Antifungal activity against triflumizole-resistant Sphaerotheca cucurbitae SFTFR-1; assay type: functional
[7] = tested on: Blumeria graminis f. sp. tritici; assay: Antifungal activity against Blumeria graminis f. sp. tritici after 6.25 g/ha 16 applications of compound by selection pressure test; assay type: functional, organism-based
[8] = tested on: Blumeria graminis f. sp. tritici; assay: Antifungal activity against Blumeria graminis f. sp. tritici strains by leaf segment floating assay; assay type: functional, organism-based
Podosphaera fusca [9] = assay: Antifungal activity against Sphaerotheca cucurbitae in compound treated cucumber leaves at 20 degC measured after 5 days by leaf disk assay; assay type: functional, organism-based

Compound	EC50 [1] [ppm]	EC50 [2] [ppm]	MIC ([2]; Blumeria graminis, 168 h) [µg/mL]	MIC (Podosphaera fusca [3]) [µg/mL]	MIC (Podosphaera fusca [4]) [µg/mL]	MIC (Podosphaera fusca [5]) [µg/mL]	MIC (Podosphaera fusca [6]) [µg/mL]	EC50 [7] [ppm]	EC50 [8] [ppm]	EC50 (Podosphaera fusca [9]) [ppm]	MIC (Podosphaera fusca [9]; Podosphaera fusca, 120 h) [µg/mL]
O=C(Cc1ccccc1)N/C(=N\OCC1CC1)c1c(C(F)(F)F)ccc(F)c1F [CYFLUFENAMID]	0.007	0.029	0.2 (≈ 0.485 µM)	0.8 (≈ 1.94 µM)	0.8 (≈ 1.94 µM)	0.8 (≈ 1.94 µM)	0.8 (≈ 1.94 µM)	0.0008	0.0011	0.0019	0.001 (≈ 0.00243 µM)
CO/N=C(/C(=O)OC)c1ccccc1COc1ccccc1C [KRESOXIM-METHYL]				0.8 (≈ 2.55 µM)	> 100						
COC(=O)NC(=S)Nc1ccccc1NC(=S)NC(=O)OC [THIOPHANATE METHYL]				1 (≈ 2.92 µM)		> 100					
CCCOC/C(=N\c1ccc(Cl)cc1C(F)(F)F)n1ccnc1 [TRIFLUMIZOLE]				0.1 (≈ 0.289 µM)			5 (≈ 14.5 µM)				
